In patent US12006302B2, “Tau PET imaging ligands” (Janssen Pharmaceutica NV, priority 2016, dated 2024):
Values belong to the compound of their own block, whether it stands above or below them.

Assays:
[1] = system: AD tissue containing only Aβ plaques; test: in vitro binding of tritiated tracers to tau-negative AD tissue; set-up: species or system human; conditions: tracer 10 nM
Experimental: (§1) The tracer was tested at 10 nM and higher concentrations were not investigated in this study.
(§2) [^3H]-AV-45 (selective for Aβ plaques) binds both tau and Aβ pathology (Aβ+/tau+, Tissue #28391) and Aβ pathology only (Aβ+/tau−, Tissue #92/050) human tissues as expected (FIG. 3L-M). As a control for the human AD tissues (Tissue #28391: FIG. 4, Tissue #92/050: FIG. 5) and striatal tissue (FIG. 6) used in this study immunohistochemistry was performed. […] Furthermore, MAO-B and MAO-A expression in the human striatal tissue (#S96/037) was confirmed using immunohistochemistry (FIG. 6).

[2] = system: MAO; test: in vitro binding of tritiated tracers to MAO-rich human tissue (striatum); conditions: tracer 10 nM
Experimental: as §1
In comparison, the tau tracer [^3H]-THK-5351 and the Aβ tracer [^3H]-AV-45 were used as THK-5351 is known to also bind MAO.

[3] = system: AD brain containing tau and Aβ pathology; test: in vitro binding of tritiated tracers to frozen AD brain slices with tau and Aβ pathology; set-up: species or system human; conditions: tracer 10 nM
Experimental: as §1, §2

[4] = target: PHF (Homo sapiens, UniProt P10636); conditions: literature; cited from earlier work
[5] = target: T1, monoamine oxidase MAO-B (Homo sapiens, UniProt P27338); conditions: literature; cited from earlier work
T1 construct: PET imaging of the human brain with the quinoline compound; host or cells: human brain in vivo
T1 sequence (P27338 1-520): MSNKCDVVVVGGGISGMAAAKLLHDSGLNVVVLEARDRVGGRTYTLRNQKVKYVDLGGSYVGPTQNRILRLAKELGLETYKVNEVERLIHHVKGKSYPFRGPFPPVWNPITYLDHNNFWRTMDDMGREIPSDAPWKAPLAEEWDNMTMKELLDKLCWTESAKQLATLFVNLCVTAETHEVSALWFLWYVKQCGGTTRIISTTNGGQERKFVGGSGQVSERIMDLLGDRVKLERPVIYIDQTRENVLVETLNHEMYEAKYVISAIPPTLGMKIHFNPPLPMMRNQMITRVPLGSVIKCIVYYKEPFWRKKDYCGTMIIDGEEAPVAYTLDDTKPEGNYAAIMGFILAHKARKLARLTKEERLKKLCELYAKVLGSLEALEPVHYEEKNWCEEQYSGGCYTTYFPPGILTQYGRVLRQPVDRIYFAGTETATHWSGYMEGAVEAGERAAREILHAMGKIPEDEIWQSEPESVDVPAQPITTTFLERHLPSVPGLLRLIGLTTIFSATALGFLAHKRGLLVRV

[6] = target: peripheral cortical benzodiazepine receptors in activated microglia (Homo sapiens, UniProt P30536); conditions: literature; cited from earlier work
[7] = target: aggregated tau (Homo sapiens, UniProt P10636); conditions: literature; cited from earlier work
[8] = system: NFTs / cortical tau-rich regions; test: digital autoradiography with [18F]Co. No. 1 on human AD visual cortex slices, with blocking; type: binding; conditions: blocker 1 μM; human AD visual cortex slices
Experimental: Adjacent slices were immunostained for tau pathology (B, AT8) and for amyloid beta pathology (C, 4G8).
a) Air-dried frozen, 10-μm-thick slices of the visual cortex of an AD-patient (with Braak stage V-VI) were incubated for 60 min with [^18F]Co. No. 1 (7.4 kBq/500 μL per slice) and subsequently washed with mixtures of PBS and ethanol as described elsewhere (Xia C. F., Arteaga J., Chen G., et al. Alzheimer's Dement. 2013, 1-11). To assess specificity of binding, slices were incubated with tracer in the presence of 1 μM of authentic T808 or Co. No. 1. After drying, slices were exposed to a phosphor storage screen (super-resolution screen, Perkin Elmer). Screens were read in a Cyclone Plus system (Perkin Elmer, Waltham, MA, U.S.A.) and analyzed using Optiquant software. Results are expressed as digital light units per square mm (DLU/mm^2). Adjacent AD slices were immunostained with anti-tau (AT8) and anti-Aβ antibodies (4G8), to correlate with [^18F]Co. No. 1 binding.

[9] = literature; cited from earlier work
[10] = target: T2, amyloid plaque-rich, NFT-poor AD brain homogenates (Homo sapiens, UniProt P05067); conditions: literature; cited from earlier work
T2 construct: amyloid plaques which form by aggregation of beta-amyloid peptide; host or cells: AD brain homogenates

[11] = system: human AD brain cortex homogenates containing abundant NFT; conditions: literature; cited from earlier work

Sequence of aggregated tau (P10636 1-441 isoform P10636-8): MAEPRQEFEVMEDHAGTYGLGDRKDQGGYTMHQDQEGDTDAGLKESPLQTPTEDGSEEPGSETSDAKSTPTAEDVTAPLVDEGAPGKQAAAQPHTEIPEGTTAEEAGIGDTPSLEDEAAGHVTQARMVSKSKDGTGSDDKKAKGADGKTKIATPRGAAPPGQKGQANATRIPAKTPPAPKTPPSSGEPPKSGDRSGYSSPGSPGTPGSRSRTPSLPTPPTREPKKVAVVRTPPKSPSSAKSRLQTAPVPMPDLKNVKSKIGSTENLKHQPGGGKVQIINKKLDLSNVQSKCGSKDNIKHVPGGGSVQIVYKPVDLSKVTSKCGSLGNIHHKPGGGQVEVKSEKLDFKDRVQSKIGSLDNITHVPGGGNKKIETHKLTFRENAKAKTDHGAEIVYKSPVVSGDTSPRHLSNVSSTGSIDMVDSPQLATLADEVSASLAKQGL
T2 sequence (P05067 672-713 limits assumed): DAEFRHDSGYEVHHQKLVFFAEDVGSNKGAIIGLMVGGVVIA
Sequence of PHF (P10636 1-441 isoform P10636-8): as the sequence (P10636 1-441 isoform P10636-8) above
Sequence of peripheral cortical benzodiazepine receptors in activated microglia (P30536 whole entry): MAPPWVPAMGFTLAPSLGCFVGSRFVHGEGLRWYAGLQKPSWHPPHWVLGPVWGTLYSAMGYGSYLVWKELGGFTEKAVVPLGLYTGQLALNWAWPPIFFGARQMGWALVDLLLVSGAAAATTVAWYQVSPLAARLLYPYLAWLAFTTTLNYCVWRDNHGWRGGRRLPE

Structure (SMILES): CNc1ccc(-c2ccc3cc(OC[C@H](O)C[18F])ccc3n2)cn1 [^18F-THK5351]
affinity to PHF [4]: high affinity
off-target binding in PET imaging of the human brain [5]: confounded by off-target binding

Structure (SMILES): CCC(C)N([11CH3])C(=O)c1cc2ccccc2c(-c2ccccc2Cl)n1 (centres unmarked) [[^11C]PK11195]
brain retention, patients versus healthy volunteers [6]: failing to show any differences

Structure (SMILES): Nc1c(F)ccc2cnc(-n3ccc4ccncc43)cc12 [^18F-MK-6240, 6-fluoro-3-(1H-pyrrolo[2,3-c]pyridine-1-yl)isoquinoline-5-amine]
defluorination as skull uptake [9]: Moderate defluorination
binding to amyloid plaque-rich, NFT-poor AD brain homogenates [10]: binds poorly
binding to human AD brain cortex homogenates containing abundant NFT [11]: binds with high affinity

Second part, led by results:

tracer binding to tau-negative AD tissue containing only Aβ plaques [1]: does not bind
tracer binding to MAO-rich human tissue (striatum) [2]: no binding
tracer binding to AD brain slices containing tau and Aβ pathology [3]: binds
Structure (SMILES): Cc1cnc(Nc2ccc3cnccc3c2)cc1F [[^3H]-Co. No. 1]

inhibition of [18F]Co. No. 1 binding [8]: 99%
Structure (SMILES): FCCC1CCN(c2ccn3c(n2)nc2ccccc23)CC1 [T808]
Kd [7]: 22 nM
selectivity for tau over Aβ aggregates [7]: 27 fold

tracer binding to tau-negative AD tissue containing only Aβ plaques [1]: binds
tracer binding to MAO-rich human tissue (striatum) [2]: binds
Structure (SMILES): CNc1ccc(-c2ccc3cc(OC[C@H](O)CF)ccc3n2)cn1 [[^3H]-THK-5351, reference compound]
